Laboratory results from patent US7960614B2, “Plant transformation and selection” (Arborgen, LLC, priority 2003, dated 2011).

Experiments:
loblolly cell lines [1] = experiment: asa2 (pWVC33) selection on Geneticin, 5MT or AMT, PCR check (Example 32); format: cell-based, Pinus taeda; conditions: Geneticin 15 mg/L with casein hydrolysate, 5MT or AMT 30 mg/L with AA4
Protocol: Two loblolly cell lines were prepared for transformation using the method of Example 28, and co-cultivated with Agrobacterium tumefaciens transformed with pWVC33 (FIG. 7) as described in Example 28. Following eradication of Agrobacterium, each cell line was equally divided onto 6 plates each of 5 different selection media containing either casein hydrolysate and Geneticin at 15 mg/L, or amino acid mixture AA4 and either 5-methyltryptophan (5MT) at 30 or 50 mg/L or […] (AMT) at 30 or 50 mg/L. The results are show in FIG. 12. Putatively transformed sublines grow on Geneticin-containing plates and on both selection treatments where 30 mg/L of the methylated tryptophan selective analog was incorporated.

[2] = system: 10 different loblolly and hybrid pine lines; experiment: Growth on casein hydrolysate or mixture AA4 with 5-methyltryptophan (FIG. 11); format: cell-based, Pinus taeda and hybrid pine; conditions: 0, 3, 10, or 30 mg/L 5-methyltryptophan
Excerpt: In another experiment, 10 different loblolly and hybrid pine lines were used, from eight genetically diverse families. These lines were initiated and cryopreserved as described in Example 26, and were placed into uniform suspension cultures and plated onto the respective media treatments as described in Example 26. Media for the experiment comprised DCR2 maintenance media containing either 0.5 g/L casein hydrolysate, 0.5 g/L of the derived mixture AA4 having the proportions shown in Table 24, or lacking both casein and the amino acid mixtures, and each of these treatments were provided with each of 0, 3, 10, or 30 mg/L treatments of 5-methyltryptophan (5MT). The vertical axis is the total weight increase in grams after the respective period.

[3] = system: 13 loblolly and hybrid pine lines; experiment: Growth on synthetic casein hydrolysate mixtures with Ally (FIG. 10); format: cell-based, Pinus taeda and hybrid pine; conditions: media with amino acid mixture in which branched chain amino acids are absent; Ally 0, 10, 30, or 50 mM
Protocol: The synthetic mixtures were tested in 13 loblolly and hybrid pine lines from 7 genetically diverse families. These lines were initiated and cryopreserved as described in Example 26, and were placed into uniform suspension cultures and plated onto the respective media treatments as described in Example 27. Media for the experiment comprised DCR2 maintenance media containing either 0.5 g/L casein hydrolysate, 0.5 g/L of one of the derived mixtures having the proportions shown in Table 24, or lacking both casein and the amino acid mixtures, and each of these treatments were provided with each of 0, 10, 30, or 50 mM treatments of the herbicide Ally® (commercially available from Dupont™).

loblolly cell lines [4] = experiment: pWVC23 transformants selected on Ally, checked on Geneticin and by PCR (Example 30); format: cell-based, Pinus taeda; conditions: Ally at either 50 or 100 nM
Protocol: Two loblolly cell lines were prepared for transformation using the same methods of Example 28, and co-cultivated with Agrobacterium tumefaciens transformed with pWVC23(FIG. 3), also as described in Example 28. Following eradication of Agrobacterium, each cell line was equally divided onto selection medium containing either Geneticin at 15 mg/L or Ally at either 50 or 100 nM. After putatively transformed sublines were grown to a sufficient size, nine sublines grown on Ally-containing media were transferred to Geneticin-containing media to check transformation status rapidly before PCR. 100% of these lines are able to grow on Geneticin-containing media. Five of these lines were then checked with PCR using the six primer pairs described in Example 28. 100% of these lines were confirmed postive transformants by PCR.

loblolly pine cell lines = experiment: als/Ally selection on medium without casein hydrolysate, PCR verification (Example 28); format: cell-based, Pinus taeda; conditions: selection on 50 nM or 100 nm Ally, no casein hydrolysate; seven sublines tested by PCR
Excerpt: In this example, five loblolly pine cell lines from four elite families were transformed with plasmids containing the als selectable marker, and selection was done on a sulfonylurea-containing selection medium modified to exclude casein hydrolysate. The five pine cell lines were initiated as described in Example 26, except that one of the five lines was an elite loblolly cross grown in an International Paper seed orchard in Georgia. The lines were cryopreserved, retrieved, and cultured as uniform suspensions as described in Example 26.
To prepare for gene transfer, polyester membrane supports were sterilized by autoclaving and placed in separate sterile Buchner funnels, and for each of six replicate plates per cell line, one to three milliliters of pine embryogenic suspension was pipetted onto each support such that the embryogenic tissue was evenly distributed. The liquid medium was suctioned from the tissues and each support bearing the embryogenic tissue was placed on gelled DCR3 preparation medium for Agrobacterium inoculation according to the methods described in U.S. Patent Publication No. 20020100083. […]

Structure (SMILES) | False positive Frequency (loblolly cell lines [1]) | PCR confirmed positive (number of lines) (loblolly cell lines [1]; of 12, 8, 22 lines PCR tested) | reduction in growth, FIG. 11 [2] | growth of cells, FIG. 10 [3] | lines confirmed positive transformants by PCR (loblolly cell lines [4]; five lines checked) [%] | Ally-selected sublines able to grow on Geneticin-containing media (loblolly cell lines [4]; nine sublines) [%] | false positive rate (loblolly pine cell lines) [%]
Cc1ccc2[nH]cc(C[C@H](N)C(=O)O)c2c1 [5MT30, 5-methyltryptophan] | 0.13 | 7 | only in the absence of tryptophan is it possible to obtain satisfactory reduction in growth |  |  |  | 
COC(=O)c1ccccc1S(=O)(=O)NC(=O)Nc1nc(C)nc(OC)n1 [Ally] |  |  |  | growth is retarded or stopped to a significant degree | 100 | 100 | 14
